Patent US11161811B2, “Process for preparing Mannich base quaternary ammonium salt high-temperature resistant corrosion inhibitor and applications thereof” (SOUTHWEST PETROLEUM UNIVERSITY, priority 2018, dated 2021)

Assays:
[1] = 0.1 g corrosion inhibitor in 200 mL of 20% hydrochloric acid solution, stirred, dissolution observed
[2] = Compatibility with 20% hydrochloric acid system containing iron ion stabilizer, clay stabilizer and discharge aiding agent; format: physicochemical; conditions: 0.1 g in 20% hydrochloric acid system with citric acid, potassium chloride and OP-10 or fluorocarbon surfactant; 90° C.
Protocol: The water solubility of the corrosion inhibitor prepared by Embodiments 1 to 4 and its compatibility with the system containing the iron ion stabilizer, clay stabilizer and discharge aiding agent under 90° C. are determined. The process is as follows: weigh 0.1 g of the corrosion inhibitor respectively, and dissolve in 200 mL of 20% hydrochloric acid solution, stir and observe its dissolution. Prepare 20% hydrochloric acid solution system adding with iron ion stabilizer citric acid, clay stabilizer potassium chloride and discharge aiding agent OP-10 or fluorocarbon surfactant, respectively, and then weigh 0.1 g of the corrosion inhibitor and add them to the 20% hydrochloric acid solution system, to observe the compatibility.

[3] = 4 h corrosion weight loss test (corrosion inhibition performance); conditions: P110 carbon steel, 20% hydrochloric acid, 90° C., 1000 ppm corrosion inhibitor
Protocol: The corrosion inhibition performance of corrosion inhibitors in the embodiments 1 to 4 is determined by a 4 h corrosion weight loss test at 90° C. using 20% hydrochloric acid as a corrosive medium and P110 carbon steels. The amount of corrosion inhibitors is 1000 ppm.

Which Water solubility [1] does the source give for CC(O)C[N+](Cc1ccc2ccccc2c1)(CC(C)O)C(CC(=O)CC(=C(c1ccccc1)c1ccccc1)c1ccccc1)c1cccc(-c2cccs2)c1 (stereo not drawn) [Embodiment 4] here?
Its Water solubility is “Soluble reddish brown”.

What about the Compatibility [2] of the same compound?
The Compatibility was “Uniform and transparent, no”.

What about the Inhibition rate [3] of the same compound?
The Inhibition rate was 98.41%.

For O=C(/C=C/c1ccccc1)CC(/C=C/c1ccccc1)[N+]1(C(c2ccccc2)(c2ccccc2)c2ccccc2)C=Cc2ccccc21 (stereo not drawn) [Embodiment 3], which Water solubility [1] is on record?
Its Water solubility is “Soluble reddish brown”.

And the Compatibility [2]?
Its Compatibility is “Uniform and transparent, no”.

What about the Inhibition rate [3] of the same compound?
Its Inhibition rate is 98.59%.

Which results are given for O=C(CC(=C(c1ccccc1)c1ccccc1)c1ccccc1)CC(/C=C/c1ccccc1)[N+]1(Cc2ccc3ccccc3c2)CCCCC1C(c1ccccc1)c1ccccc1 (stereo not drawn) [Embodiment 2]?
Water solubility [1]: Soluble reddish brown; Compatibility [2]: Uniform and transparent, no; Inhibition rate [3]: 97.96%

Which results are given for O=C(/C=C/c1ccccc1)CC(c1cccc(-c2cccs2)c1)[N+](Cc1ccccc1)(Cc1ccccc1)Cc1ccccc1 (stereo not drawn) [Embodiment 1]?
Water solubility [1]: Soluble reddish brown; Compatibility [2]: Uniform and transparent, no; Inhibition rate [3]: 98.63%
